Assay results as given in paper PMC9954146, “Anti-Leukaemic Activity of Rilpivirine Is Mediated by Aurora A Kinase Inhibition” (Cancers, 2023).

Assays:
Assay in all cases: Kinase panel
Assay type in all cases: biochemical
Conditions in all cases: read-out: % Residual Activity
HIPK2(h) = biological target: T1, HIPK2(h) (Homo sapiens, UniProt Q9H2X6)
T1 construct: purchased Eurofins (KinaseProfiler)
Procedure, shortened: (§1)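 Kinome-wide selectivity of rilpivirine was profiled in a commercial kinase panel. Radioisotope-based assays run at each kinase's ATP Km gave IC50 values, which were converted to Ki with the Cheng–Prusoff equation.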

Abl(h) = biological target: T2, Abl(h) (Homo sapiens, UniProt P00519)
T2 construct: purchased Eurofins (KinaseProfiler)
Procedure, shortened: as §1

Syk(h) = biological target: T3, Syk(h) (Homo sapiens, UniProt P43405)
T3 construct: purchased Eurofins (KinaseProfiler)
Procedure, shortened: as §1

IKKε(h) = biological target: T4, IKKε(h) (Homo sapiens, UniProt Q14164)
T4 construct: purchased Eurofins (KinaseProfiler)
Procedure, shortened: as §1

PKCθ(h) = biological target: T5, PKCθ(h) (Homo sapiens, UniProt Q04759)
T5 construct: purchased Eurofins (KinaseProfiler)
Procedure, shortened: as §1

[1] = biological target: PI3 Kinase (p110aH1047R)/p85a)(h) (Homo sapiens, UniProt P42336, H1047R)
Procedure, shortened: as §1

ErbB2(h) = biological target: T6, ErbB2(h) (Homo sapiens, UniProt P04626)
T6 construct: purchased Eurofins (KinaseProfiler)
Procedure, shortened: as §1

GSK3α(h) = biological target: T7, GSK3α(h) (Homo sapiens, UniProt P49840)
T7 construct: purchased Eurofins (KinaseProfiler)
Procedure, shortened: as §1

AMPKα2(h) = biological target: T8, AMPKα2(h) (Homo sapiens, UniProt P54646)
T8 construct: purchased Eurofins (KinaseProfiler)
Procedure, shortened: as §1

Rsk1(h) = biological target: T9, Rsk1(h) (Homo sapiens, UniProt Q15418)
T9 construct: purchased Eurofins (KinaseProfiler)
Procedure, shortened: as §1

EphA5(h) = biological target: T10, EphA5(h) (Homo sapiens, UniProt P54756)
T10 construct: purchased Eurofins (KinaseProfiler)
Procedure, shortened: as §1

CK1δ(h) = biological target: T11, CK1δ(h) (Homo sapiens, UniProt P48730)
T11 construct: purchased Eurofins (KinaseProfiler)
Procedure, shortened: as §1

CDK1/cyclinB(h) = biological target: T12, CDK1/cyclinB(h) (Homo sapiens, UniProt P06493)
T12 construct: purchased Eurofins (KinaseProfiler)
Procedure, shortened: as §1

Blk(m) = biological target: T13, Blk(m) (Mus musculus, UniProt P16277)
T13 construct: purchased Eurofins (KinaseProfiler)
Procedure, shortened: as §1

PAK1(h) = biological target: T14, PAK1(h) (Homo sapiens, UniProt Q13153)
T14 construct: purchased Eurofins (KinaseProfiler)
Procedure, shortened: as §1

Flt4(h) = biological target: T15, Flt4(h) (Homo sapiens, UniProt P35916)
T15 construct: purchased Eurofins (KinaseProfiler)
Procedure, shortened: as §1

cKit(h) = biological target: T16, cKit(h) (Homo sapiens, UniProt P10721)
T16 construct: purchased Eurofins (KinaseProfiler)
Procedure, shortened: as §1

Tie2(R849W)(h) = biological target: T17, Tie2(R849W)(h) (Homo sapiens, UniProt Q02763, R849W)
T17 construct: purchased Eurofins (KinaseProfiler)
Procedure, shortened: as §1

TNIK(h) = biological target: T18, TNIK(h) (Homo sapiens, UniProt Q9UKE5)
T18 construct: purchased Eurofins (KinaseProfiler)
Procedure, shortened: as §1

Arg(h) = biological target: T19, Arg(h) (Homo sapiens, UniProt P42684)
T19 construct: purchased Eurofins (KinaseProfiler)
Procedure, shortened: as §1

PKCβI(h) = biological target: T20, PKCβI(h) (Homo sapiens, UniProt P05771)
T20 construct: purchased Eurofins (KinaseProfiler)
Procedure, shortened: as §1

HPK1(h) = biological target: T21, HPK1(h) (Homo sapiens, UniProt Q92918)
T21 construct: purchased Eurofins (KinaseProfiler)
Procedure, shortened: as §1

CaMKK1(h) = biological target: T22, CaMKK1(h) (Homo sapiens, UniProt Q8N5S9)
T22 construct: purchased Eurofins (KinaseProfiler)
Procedure, shortened: as §1

CDKL4(h) = biological target: T23, CDKL4(h) (Homo sapiens, UniProt Q5MAI5)
T23 construct: purchased Eurofins (KinaseProfiler)
Procedure, shortened: as §1

MuSK(h) = biological target: T24, MuSK(h) (Homo sapiens, UniProt O15146)
T24 construct: purchased Eurofins (KinaseProfiler)
Procedure, shortened: as §1

FGFR2(h) = biological target: T25, FGFR2(h) (Homo sapiens, UniProt P21802)
T25 construct: purchased Eurofins (KinaseProfiler)
Procedure, shortened: as §1

Met(D1246N)(h) = biological target: T26, Met(D1246N)(h) (Homo sapiens, UniProt P08581, D1228N)
T26 construct: purchased Eurofins (KinaseProfiler)
Procedure, shortened: as §1

c-RAF(h) = biological target: T27, c-RAF(h) (Homo sapiens, UniProt P04049)
T27 construct: purchased Eurofins (KinaseProfiler)
Procedure, shortened: as §1

ACK1(h) = biological target: T28, ACK1(h) (Homo sapiens, UniProt Q07912)
T28 construct: purchased Eurofins (KinaseProfiler)
Procedure, shortened: as §1

BTK(R28H)(h) = biological target: T29, BTK(R28H)(h) (Homo sapiens, UniProt Q06187, R28H)
T29 construct: purchased Eurofins (KinaseProfiler)
Procedure, shortened: as §1

PrKX(h) = biological target: T30, PrKX(h) (Homo sapiens, UniProt P51817)
T30 construct: purchased Eurofins (KinaseProfiler)
Procedure, shortened: as §1

PKD2(h) = biological target: T31, PKD2(h) (Homo sapiens, UniProt Q9BZL6)
T31 construct: purchased Eurofins (KinaseProfiler)
Procedure, shortened: as §1

OSR1(h) = biological target: T32, OSR1(h) (Homo sapiens, UniProt O95747)
T32 construct: purchased Eurofins (KinaseProfiler)
Procedure, shortened: as §1

SGK2(h) = biological target: T33, SGK2(h) (Homo sapiens, UniProt Q9HBY8)
T33 construct: purchased Eurofins (KinaseProfiler)
Procedure, shortened: as §1

IR(h), activated = biological target: T34, IR(h), activated (Homo sapiens, UniProt P06213)
T34 construct: purchased Eurofins (KinaseProfiler)
Procedure, shortened: as §1

Fyn(h) = biological target: T35, Fyn(h) (Homo sapiens, UniProt P06241)
T35 construct: purchased Eurofins (KinaseProfiler)
Procedure, shortened: as §1

RIPK2(h) = biological target: T36, RIPK2(h) (Homo sapiens, UniProt O43353)
T36 construct: purchased Eurofins (KinaseProfiler)
Procedure, shortened: as §1

EGFR(h) = biological target: T37, EGFR(h) (Homo sapiens, UniProt P00533)
T37 construct: purchased Eurofins (KinaseProfiler)
Procedure, shortened: as §1

IR(h) = biological target: T38, IR(h) (Homo sapiens, UniProt P06213)
T38 construct: purchased Eurofins (KinaseProfiler)
Procedure, shortened: as §1

T7 sequence (P49840 whole entry): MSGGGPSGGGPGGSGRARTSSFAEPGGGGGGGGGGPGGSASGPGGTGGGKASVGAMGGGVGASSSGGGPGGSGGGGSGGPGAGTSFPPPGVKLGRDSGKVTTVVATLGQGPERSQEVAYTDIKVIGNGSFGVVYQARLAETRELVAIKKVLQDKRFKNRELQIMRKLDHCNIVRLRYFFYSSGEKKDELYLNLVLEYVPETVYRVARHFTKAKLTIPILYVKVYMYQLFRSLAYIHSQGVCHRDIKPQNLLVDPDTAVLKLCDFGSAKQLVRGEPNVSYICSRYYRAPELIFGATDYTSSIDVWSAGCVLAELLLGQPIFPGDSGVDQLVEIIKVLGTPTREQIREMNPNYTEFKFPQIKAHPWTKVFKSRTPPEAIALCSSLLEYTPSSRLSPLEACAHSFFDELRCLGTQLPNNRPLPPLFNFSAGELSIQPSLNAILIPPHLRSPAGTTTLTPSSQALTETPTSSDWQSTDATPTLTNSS
T6 sequence (P04626 23-1255): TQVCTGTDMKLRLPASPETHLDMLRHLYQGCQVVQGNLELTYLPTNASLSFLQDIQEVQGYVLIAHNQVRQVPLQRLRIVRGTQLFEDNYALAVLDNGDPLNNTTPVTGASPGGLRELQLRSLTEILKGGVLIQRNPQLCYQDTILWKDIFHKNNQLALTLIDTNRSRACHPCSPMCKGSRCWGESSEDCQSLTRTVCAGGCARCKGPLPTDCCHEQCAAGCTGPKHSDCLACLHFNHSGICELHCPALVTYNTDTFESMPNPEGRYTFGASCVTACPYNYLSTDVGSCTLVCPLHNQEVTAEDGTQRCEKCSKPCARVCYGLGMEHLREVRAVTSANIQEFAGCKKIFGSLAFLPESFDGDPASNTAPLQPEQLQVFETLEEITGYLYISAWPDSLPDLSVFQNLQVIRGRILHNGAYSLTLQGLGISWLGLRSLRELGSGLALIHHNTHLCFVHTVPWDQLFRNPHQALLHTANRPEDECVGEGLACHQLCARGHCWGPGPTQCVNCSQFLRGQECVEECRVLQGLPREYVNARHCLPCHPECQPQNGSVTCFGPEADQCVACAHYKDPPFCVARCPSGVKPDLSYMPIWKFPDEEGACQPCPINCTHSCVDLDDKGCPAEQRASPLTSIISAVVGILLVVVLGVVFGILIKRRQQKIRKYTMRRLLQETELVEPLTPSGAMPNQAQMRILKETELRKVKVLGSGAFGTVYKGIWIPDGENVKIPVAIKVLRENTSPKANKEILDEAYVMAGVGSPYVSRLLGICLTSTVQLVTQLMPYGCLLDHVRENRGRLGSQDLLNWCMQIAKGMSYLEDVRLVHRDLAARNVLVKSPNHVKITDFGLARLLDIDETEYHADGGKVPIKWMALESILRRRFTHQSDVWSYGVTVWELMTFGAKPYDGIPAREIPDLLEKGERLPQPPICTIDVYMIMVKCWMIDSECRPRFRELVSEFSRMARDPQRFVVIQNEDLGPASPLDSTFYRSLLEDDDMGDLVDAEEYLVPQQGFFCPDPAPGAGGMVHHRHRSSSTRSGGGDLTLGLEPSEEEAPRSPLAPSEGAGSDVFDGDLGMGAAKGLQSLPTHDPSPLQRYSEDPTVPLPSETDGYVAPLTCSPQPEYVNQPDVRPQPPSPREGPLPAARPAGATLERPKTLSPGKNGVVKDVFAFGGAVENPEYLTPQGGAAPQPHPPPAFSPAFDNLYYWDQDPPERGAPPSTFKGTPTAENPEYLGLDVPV
T5 sequence (Q04759 whole entry): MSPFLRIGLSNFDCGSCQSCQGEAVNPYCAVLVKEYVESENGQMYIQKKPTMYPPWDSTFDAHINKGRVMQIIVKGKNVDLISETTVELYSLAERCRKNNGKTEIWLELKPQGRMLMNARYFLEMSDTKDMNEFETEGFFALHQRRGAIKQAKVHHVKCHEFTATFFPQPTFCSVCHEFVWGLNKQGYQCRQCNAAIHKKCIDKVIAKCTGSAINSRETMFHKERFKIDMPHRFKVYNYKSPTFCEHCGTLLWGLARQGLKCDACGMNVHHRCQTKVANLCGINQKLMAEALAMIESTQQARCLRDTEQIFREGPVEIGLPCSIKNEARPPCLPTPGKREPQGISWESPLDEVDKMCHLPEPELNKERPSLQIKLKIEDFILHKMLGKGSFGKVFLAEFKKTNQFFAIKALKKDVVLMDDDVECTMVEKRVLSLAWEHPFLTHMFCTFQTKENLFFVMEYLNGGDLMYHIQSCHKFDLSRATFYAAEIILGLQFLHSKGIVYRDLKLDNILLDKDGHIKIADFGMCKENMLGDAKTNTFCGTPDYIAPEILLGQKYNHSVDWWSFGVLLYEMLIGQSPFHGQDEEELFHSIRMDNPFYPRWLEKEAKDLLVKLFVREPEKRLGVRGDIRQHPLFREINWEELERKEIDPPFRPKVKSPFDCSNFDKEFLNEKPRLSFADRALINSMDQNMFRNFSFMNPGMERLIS
T31 sequence (Q9BZL6 whole entry): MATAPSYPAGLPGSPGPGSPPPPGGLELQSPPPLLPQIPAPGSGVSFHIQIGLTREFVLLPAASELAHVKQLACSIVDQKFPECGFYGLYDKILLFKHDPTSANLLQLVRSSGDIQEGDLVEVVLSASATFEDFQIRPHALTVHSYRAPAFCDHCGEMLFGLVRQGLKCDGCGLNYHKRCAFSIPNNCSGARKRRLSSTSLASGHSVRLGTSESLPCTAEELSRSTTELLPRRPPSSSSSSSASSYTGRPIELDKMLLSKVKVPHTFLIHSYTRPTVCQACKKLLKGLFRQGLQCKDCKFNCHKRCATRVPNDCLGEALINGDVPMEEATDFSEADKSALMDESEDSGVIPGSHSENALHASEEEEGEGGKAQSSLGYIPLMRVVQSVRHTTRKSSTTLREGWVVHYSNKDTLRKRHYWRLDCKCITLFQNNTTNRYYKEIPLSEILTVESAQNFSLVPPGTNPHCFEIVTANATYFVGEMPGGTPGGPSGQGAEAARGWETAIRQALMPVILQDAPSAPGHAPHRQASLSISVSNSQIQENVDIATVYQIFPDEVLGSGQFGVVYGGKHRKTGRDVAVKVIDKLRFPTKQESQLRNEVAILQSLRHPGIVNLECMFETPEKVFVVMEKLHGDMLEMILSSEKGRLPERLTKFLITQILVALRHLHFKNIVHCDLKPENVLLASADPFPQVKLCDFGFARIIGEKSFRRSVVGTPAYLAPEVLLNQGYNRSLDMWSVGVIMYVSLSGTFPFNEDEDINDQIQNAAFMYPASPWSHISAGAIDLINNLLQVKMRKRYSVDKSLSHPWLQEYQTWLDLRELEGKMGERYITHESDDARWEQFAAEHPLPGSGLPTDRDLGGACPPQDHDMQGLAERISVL
T28 sequence (Q07912 whole entry): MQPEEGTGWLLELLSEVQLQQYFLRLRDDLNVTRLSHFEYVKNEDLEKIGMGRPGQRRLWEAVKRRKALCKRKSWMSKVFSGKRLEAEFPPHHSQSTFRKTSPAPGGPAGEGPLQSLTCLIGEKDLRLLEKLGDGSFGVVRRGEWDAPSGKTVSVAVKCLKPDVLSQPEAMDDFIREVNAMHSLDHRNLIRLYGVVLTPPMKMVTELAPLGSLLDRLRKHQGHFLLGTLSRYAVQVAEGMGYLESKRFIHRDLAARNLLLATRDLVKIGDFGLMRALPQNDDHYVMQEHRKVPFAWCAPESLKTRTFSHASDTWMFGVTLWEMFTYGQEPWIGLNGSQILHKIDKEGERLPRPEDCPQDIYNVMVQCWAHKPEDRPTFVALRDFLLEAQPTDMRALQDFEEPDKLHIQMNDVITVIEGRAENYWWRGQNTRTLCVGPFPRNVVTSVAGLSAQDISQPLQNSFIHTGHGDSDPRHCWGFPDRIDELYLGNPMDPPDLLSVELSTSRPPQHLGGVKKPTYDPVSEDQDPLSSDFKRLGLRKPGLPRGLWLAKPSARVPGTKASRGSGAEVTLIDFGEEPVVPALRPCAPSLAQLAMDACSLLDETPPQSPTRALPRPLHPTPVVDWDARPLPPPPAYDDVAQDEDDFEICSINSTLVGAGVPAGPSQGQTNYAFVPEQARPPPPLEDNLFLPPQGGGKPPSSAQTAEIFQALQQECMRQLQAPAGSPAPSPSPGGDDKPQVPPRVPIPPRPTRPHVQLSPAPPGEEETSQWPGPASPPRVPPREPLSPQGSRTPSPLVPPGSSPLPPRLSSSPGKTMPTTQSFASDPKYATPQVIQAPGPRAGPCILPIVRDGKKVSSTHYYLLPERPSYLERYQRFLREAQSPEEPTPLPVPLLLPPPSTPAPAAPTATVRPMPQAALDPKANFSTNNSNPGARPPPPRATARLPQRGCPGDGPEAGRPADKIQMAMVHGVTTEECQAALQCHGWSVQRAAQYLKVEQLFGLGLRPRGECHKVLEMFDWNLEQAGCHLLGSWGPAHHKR
T29 sequence (Q06187 whole entry R28H): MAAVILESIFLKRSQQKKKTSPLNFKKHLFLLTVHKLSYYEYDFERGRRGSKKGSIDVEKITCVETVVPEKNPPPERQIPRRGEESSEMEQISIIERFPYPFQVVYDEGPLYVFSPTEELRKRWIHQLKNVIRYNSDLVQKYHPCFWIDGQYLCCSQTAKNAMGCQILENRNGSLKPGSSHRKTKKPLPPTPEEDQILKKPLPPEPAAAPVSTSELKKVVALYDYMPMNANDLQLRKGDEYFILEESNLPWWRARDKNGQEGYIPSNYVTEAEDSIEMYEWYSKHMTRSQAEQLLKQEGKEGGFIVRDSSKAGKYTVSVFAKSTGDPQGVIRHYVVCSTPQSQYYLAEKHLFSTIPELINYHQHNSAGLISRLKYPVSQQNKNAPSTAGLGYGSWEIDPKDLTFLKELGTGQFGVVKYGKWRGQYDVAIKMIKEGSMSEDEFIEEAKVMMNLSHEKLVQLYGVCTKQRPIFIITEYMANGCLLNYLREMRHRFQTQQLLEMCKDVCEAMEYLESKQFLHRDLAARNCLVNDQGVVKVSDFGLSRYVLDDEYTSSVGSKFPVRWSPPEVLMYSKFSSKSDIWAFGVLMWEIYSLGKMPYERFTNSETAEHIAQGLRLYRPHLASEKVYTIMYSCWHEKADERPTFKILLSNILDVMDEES

`Cc1cc(/C=C/C#N)cc(C)c1Nc1ccnc(Nc2ccc(C#N)cc2)n1` [rilpivirine, (E)-4-((4-((4-(2-cyanoethenyl)-2,6-dimethylphenyl)amino)pyrimidin-2-yl)amino)benzonitrile] gave a remaining activity at 1 µM (HIPK2(h)) of 85%, a remaining activity at 1 µM (Abl(h)) of 86% and a remaining activity at 1 µM (Syk(h)) of 79%. It also gave a remaining activity at 1 µM (IKKε(h)) of 82%, a remaining activity at 1 µM (PKCθ(h)) of 66% and a remaining activity at 1 µM [1] of 93%. It also gave a remaining activity at 1 µM (ErbB2(h)) of 116%, a remaining activity at 1 µM (GSK3α(h)) of 80% and a remaining activity at 1 µM (AMPKα2(h)) of 48%. It also gave a remaining activity at 1 µM (Rsk1(h)) of 91%, a remaining activity at 1 µM (EphA5(h)) of 79% and a remaining activity at 1 µM (CK1δ(h)) of 99%. For the same compound, the remaining activity at 1 µM (CDK1/cyclinB(h)) was 105%, the remaining activity at 1 µM (Blk(m)) was 75% and the remaining activity at 1 µM (PAK1(h)) was 92%. For the same compound, the remaining activity at 1 µM (Flt4(h)) was 101%, the remaining activity at 1 µM (cKit(h)) was 99% and the remaining activity at 1 µM (Tie2(R849W)(h)) was 86%. For the same compound, the remaining activity at 1 µM (TNIK(h)) was 50%, the remaining activity at 1 µM (Arg(h)) was 70% and the remaining activity at 1 µM (PKCβI(h)) was 89%. The remaining activity at 1 µM (HPK1(h)) was 62%, the remaining activity at 1 µM (CaMKK1(h)) was 90% and the remaining activity at 1 µM (CDKL4(h)) was 74%. The remaining activity at 1 µM (MuSK(h)) was 96%, the remaining activity at 1 µM (FGFR2(h)) was 95% and the remaining activity at 1 µM (Met(D1246N)(h)) was 102%. It also gave a remaining activity at 1 µM (c-RAF(h)) of 91%, a remaining activity at 1 µM (ACK1(h)) of 97% and a remaining activity at 1 µM (BTK(R28H)(h)) of 97%. It also gave a remaining activity at 1 µM (PrKX(h)) of 97%, a remaining activity at 1 µM (PKD2(h)) of 115% and a remaining activity at 1 µM (OSR1(h)) of 102%. For the same compound, the remaining activity at 1 µM (SGK2(h)) was 97%, the remaining activity at 1 µM (IR(h), activated) was 85% and the remaining activity at 1 µM (Fyn(h)) was 49%. For the same compound, the remaining activity at 1 µM (RIPK2(h)) was 45%, the remaining activity at 1 µM (EGFR(h)) was 111% and the remaining activity at 1 µM (IR(h)) was 111%.
